Each compound was assayed against C5aR (Homo sapiens (Human), UniProt P21730) (assay: Chemotaxis assay using U937 cells (C5aR mediated migration)). Settings: read-out: Mig IC50.
Assay type: cell-based
In short: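 Migration toward 0.03 nM C5a, mixed with varying compound in the lower chamber (HBSS with 1% FBS), was measured over 1.5 h at 37° C through 5 μm filters. Upper chamber held 100,000 U937 cells treated overnight with 0.5 mM cAMP; migrated cells quantified by counts or CyQuant for IC50, SDF-1α as specificity control.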

Sequence of C5aR (P21730 whole entry): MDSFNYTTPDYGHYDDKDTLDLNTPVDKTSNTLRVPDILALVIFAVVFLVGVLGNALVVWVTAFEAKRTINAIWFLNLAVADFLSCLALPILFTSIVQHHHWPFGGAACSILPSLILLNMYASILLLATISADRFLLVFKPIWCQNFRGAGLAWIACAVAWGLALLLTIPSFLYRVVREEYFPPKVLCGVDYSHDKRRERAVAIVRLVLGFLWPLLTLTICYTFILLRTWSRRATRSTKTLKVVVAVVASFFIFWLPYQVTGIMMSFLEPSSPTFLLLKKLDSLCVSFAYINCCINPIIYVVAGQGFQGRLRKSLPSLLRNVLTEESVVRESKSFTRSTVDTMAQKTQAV

IC50, 50 to 500 nM:
Cc1ccnc(C)c1-n1nc2c(c1-c1cc(F)c(NC(N)=O)cc1F)CN(C(C)(C)c1ccccc1)CC2 [Example 1.133], Cc1cccc(OCC(C)C)c1-n1nc2c(c1-c1ccc(CO)cc1)CN(c1ccccc1C(C)(C)C)CC2 [Example 1.450], CCc1cccc(CC)c1-n1nc2c(c1-c1ccc(NC(N)=O)c(F)c1)CN(C(C)(C)CC)CC2 [Example 1.221], COc1cccc(F)c1-n1nc2c(c1-c1ccc(NC(N)=O)cc1)CN(c1cc(C(C)(C)C)ccc1C)CC2 [Example 1.451], CCc1cccc(C)c1-n1nc2c(c1-c1ccc(NC(N)=O)cc1)CN(C(=O)OC(C)(C)C)CC2 [Example 1.399], COc1cccc(C)c1-n1nc2c(c1-c1ccc(NC(N)=O)cc1)CN(c1ccccc1C)CC2 [Example 1.484]

IC50, ≤ 5 nM:
NC(=O)Nc1cc(F)c(-c2c3c(nn2-c2ccccc2OCC(F)(F)F)CCN(c2ncc(Cl)cc2Cl)C3)cc1F [Example 1.143], Cc1cccc(OCC(C)C)c1-n1nc2c(c1-c1ccc(NC(N)=O)c(F)c1Cl)CN(c1ncc(C(F)(F)F)cc1F)CC2 [Example 1.222], CCc1cccc(CC)c1-n1nc2c(c1-c1cc(F)c(NC(N)=O)cc1F)CN(Cc1ccc(C(F)(F)F)cc1C)CC2 [Example 1.064], Cc1cccc(OCC(C)C)c1-n1nc2c(c1-c1ccc(NC(N)=O)cc1)CN(Cc1c(Cl)cc(C(F)(F)F)cc1C(F)(F)F)CC2 [Example 1.332], Cc1cccc(OCC(C)C)c1-n1nc2c(c1-c1cc(F)c(NC(N)=O)cc1F)CN(c1ncc(Cl)cn1)CC2 [Example 1.175], Cc1cccc(OCC(C)C)c1-n1nc2c(c1-c1ccc(NC(N)=O)cc1)CN(c1nc(C(F)(F)F)ccc1C(F)(F)F)CC2 [Example 1.339], Cc1ccc(CN2CCc3nn(-c4c(C)cccc4OCC(C)C)c(-c4ccc(NC(N)=O)cc4)c3C2)c(F)c1 [Example 1.308], CCc1cccc(CC)c1-n1nc2c(c1-c1cc(F)c(NC(N)=O)cc1F)CN(Cc1ccc(Cl)cc1C(F)(F)F)CC2 [Example 1.076], Cc1cccc(OCC(C)C)c1-n1nc2c(c1-c1ccc(NC(N)=O)cc1)CN(Cc1ccc(Cl)cc1Cl)CC2 [Example 1.328], COCC(c1ccccc1)N1CCc2nn(-c3c(C)cccc3OCC(C)C)c(-c3cc(F)c(NC(N)=O)cc3F)c2C1 (stereo not shown) [Example 1.131], CCc1cccc(CC)c1-n1nc2c(c1-c1cc(F)c(NC(N)=O)cc1F)CN(Cc1ccc(C(F)(F)F)cc1F)C(C)(C)C2 [Example 1.050], CCc1cccc(CC)c1-n1nc2c(c1-c1cc(F)c(NC(N)=O)cc1F)CN(Cc1ccc(C(F)(F)F)cc1C(F)(F)F)C(C)(C)C2 [Example 1.059], Cc1cc(Cl)cnc1N1CCc2nn(-c3c(C)cccc3OCC(C)C)c(-c3cc(F)c(NC(N)=O)cc3F)c2C1 [Example 1.168], CCc1cccc(CC)c1-n1nc2c(c1-c1ccc(NC(N)=O)c(F)c1)CN(Cc1ccccc1C(F)(F)F)CC2 [Example 1.244], CCc1cccc(CC)c1-n1nc2c(c1-c1cc(F)c(NC(N)=O)cc1F)CN(Cc1c(F)cc(C(F)(F)F)cc1C(F)(F)F)CC2 [Example 1.062], CCc1cccc(CC)c1-n1nc2c(c1-c1cc(F)c(NC(N)=O)cc1F)CN(CC1CCOCC1)C(C)(C)C2 [Example 1.040], CCc1cccc(CC)c1-n1nc2c(c1-c1cc(F)c(NC(N)=O)cc1F)CN(Cc1cc(C(F)(F)F)ccc1Cl)CC2 [Example 1.038], CCc1cccc(CC)c1-n1nc2c(c1-c1cc(F)c(NC(N)=O)cc1F)CN(Cc1cc(Cl)ccc1Cl)C(C)(C)C2 [Example 1.023]

IC50, > 500 nM:
Cc1cccc(OCC(C)C)c1-n1nc2c(c1-c1ccc(NC(N)=O)cc1)CN(C(=O)Cc1ccccc1)CC2 [Example 1.430], Cc1cc(-c2c3c(nn2-c2c(C)cccc2OCC(C)C)CCN(c2ncc(C(F)(F)F)cc2F)C3)cc(C)c1NC(N)=O [Example 1.266]

IC50, 5 to 50 nM:
CCc1cccc(CC)c1-n1nc2c(c1-c1cc(F)c(NC(C)=O)cc1F)CN(Cc1ccc(C(F)(F)F)cc1C(F)(F)F)CC2 [Example 1.006], Cc1cccc(OCC(C)C)c1-n1nc2c(c1-c1ccc(NC(N)=O)c(F)c1)CN(S(=O)(=O)c1ccccc1C(F)(F)F)CC2 [Example 1.229], Cc1cccc(OCC(C)C)c1-n1nc2c(c1-c1ccc(NC(N)=O)cc1)CN(c1ncc(Cl)cc1Cl)CC2 [Example 1.258], Cc1cccc(OCC(C)C)c1-n1nc2c(c1-c1ccc(NC(N)=O)cc1)CN(c1ncccc1C(F)(F)F)CC2 [Example 1.271], NC(=O)Nc1cc(F)c(-c2c3c(nn2-c2c(Cl)cccc2Cl)CCN(c2ncc(Cl)cc2Cl)C3)cc1F [Example 1.187]
